Consider 5 molecules from patent US9156845B2, “4-(substituted amino)-7H-pyrrolo[2,3-d] pyrimidines as LRRK2 inhibitors” (Pfizer Inc., priority 2012, dated 2015).

One test deals with mutant G2019S LRRK2 (Homo sapiens (Human), UniProt Q5S007, G2019S). Nature of the test: LRRK2 Lantha Screen kinase assay, mutant enzyme. It is filed as biochemical. The note with it: geometric mean of 2-5 determinations unless otherwise indicated (a: >=6 determinations; b: single determination).
Test [1] has as its target GST-tagged truncated LRRK2 (Homo sapiens (Human), UniProt Q5S007). Nature of the test: LRRK2 Lantha Screen kinase assay. Format: biochemical. Conditions: geometric mean of 2-5 determinations unless otherwise indicated (a: >=6 determinations; b: single determination); read-out: LRRK2 WT IC50.

mutant G2019S LRRK2, sequence (Q5S007 970-2527 G2019S): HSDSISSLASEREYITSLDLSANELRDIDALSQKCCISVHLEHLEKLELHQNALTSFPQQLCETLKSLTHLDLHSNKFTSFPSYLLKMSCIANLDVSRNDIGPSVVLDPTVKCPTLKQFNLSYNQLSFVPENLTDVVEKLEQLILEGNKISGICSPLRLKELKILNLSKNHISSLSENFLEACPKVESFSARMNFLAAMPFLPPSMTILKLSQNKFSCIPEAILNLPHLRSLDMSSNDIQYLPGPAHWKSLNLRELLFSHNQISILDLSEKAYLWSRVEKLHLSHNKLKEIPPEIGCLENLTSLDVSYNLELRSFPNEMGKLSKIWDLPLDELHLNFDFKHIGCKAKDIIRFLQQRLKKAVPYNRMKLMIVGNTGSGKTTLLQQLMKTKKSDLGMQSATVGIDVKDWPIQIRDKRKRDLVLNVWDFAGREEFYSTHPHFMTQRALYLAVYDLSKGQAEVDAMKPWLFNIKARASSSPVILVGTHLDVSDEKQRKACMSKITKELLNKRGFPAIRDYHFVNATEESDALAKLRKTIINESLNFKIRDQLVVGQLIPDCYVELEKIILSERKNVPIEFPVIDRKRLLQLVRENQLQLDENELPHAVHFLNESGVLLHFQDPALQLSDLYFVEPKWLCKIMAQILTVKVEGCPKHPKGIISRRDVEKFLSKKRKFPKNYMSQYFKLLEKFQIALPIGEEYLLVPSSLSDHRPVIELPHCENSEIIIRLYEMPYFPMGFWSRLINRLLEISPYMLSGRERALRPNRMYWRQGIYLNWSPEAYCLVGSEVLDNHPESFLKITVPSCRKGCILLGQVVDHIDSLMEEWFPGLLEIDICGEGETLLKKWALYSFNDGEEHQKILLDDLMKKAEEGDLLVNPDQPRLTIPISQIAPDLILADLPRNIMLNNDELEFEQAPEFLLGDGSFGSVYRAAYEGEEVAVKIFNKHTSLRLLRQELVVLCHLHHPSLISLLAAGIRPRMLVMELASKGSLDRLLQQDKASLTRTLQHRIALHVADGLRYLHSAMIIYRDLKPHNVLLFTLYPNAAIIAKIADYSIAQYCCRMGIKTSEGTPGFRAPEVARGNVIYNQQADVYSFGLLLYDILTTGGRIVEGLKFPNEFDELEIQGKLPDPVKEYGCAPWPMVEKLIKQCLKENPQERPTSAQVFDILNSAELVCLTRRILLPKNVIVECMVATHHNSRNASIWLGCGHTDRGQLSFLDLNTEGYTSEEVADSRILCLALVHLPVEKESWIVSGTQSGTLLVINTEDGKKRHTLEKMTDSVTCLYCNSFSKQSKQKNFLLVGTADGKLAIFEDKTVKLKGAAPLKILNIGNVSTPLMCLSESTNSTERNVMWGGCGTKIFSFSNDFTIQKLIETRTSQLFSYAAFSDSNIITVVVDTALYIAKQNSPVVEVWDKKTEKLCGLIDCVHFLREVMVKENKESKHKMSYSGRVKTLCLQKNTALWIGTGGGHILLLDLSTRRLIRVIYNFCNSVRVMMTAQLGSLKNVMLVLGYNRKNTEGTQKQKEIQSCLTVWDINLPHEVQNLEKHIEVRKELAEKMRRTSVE
GST-tagged truncated LRRK2, sequence (Q5S007 970-2527): as the sequence (Q5S007 970-2527 G2019S) above, with S1050G counted along it

As a reminder, the IC50 is the concentration at which inhibition is half-maximal. For `NC(=O)c1cccc(-c2c[nH]c3ncnc(N4CCOCC4)c23)n1` [Example 215, 6-[4-(morpholin-4-yl)-7H-pyrrolo[2,3-d]pyrimidin-5-yl]pyridine-2-carboxamide], the figures for the IC50 (at mutant G2019S LRRK2; in test [1]) were 79.3 nM and 30.6 nM, respectively.
For the molecule `c1cnc2c(-c3c[nH]c4ncnc(N5CCOCC5)c34)cnn2c1` [Example 216, 4-(morpholin-4-yl)-5-(pyrazolo[1,5-a]pyrimidin-3-yl)-7H-pyrrolo[2,3-d]pyrimidine], the IC50 against mutant G2019S LRRK2 was 119 nM; in test [1], 35.6 nM.
The corresponding values for `Cc1nc2sccn2c1-c1c[nH]c2ncnc(N3CCOCC3)c12` [Example 218, 5-(6-methylimidazo[2,1-b][1,3]thiazol-5-yl)-4-(morpholin-4-yl)-7H-pyrrolo[2,3-d]pyrimidine] are 135 nM and 37.4 nM.
For `N#Cc1cccc(-c2c[nH]c3ncnc(N4CCOC(c5ccno5)C4)c23)c1` (stereo not shown) [Example 219, 3-{4-[2-(1,2-oxazol-5-yl)morpholin-4-yl]-7H-pyrrolo[2,3-d]pyrimidin-5-yl}benzonitrile], in that order: 234 nM and 37 nM.
For `Cn1cc(-c2c[nH]c3ncnc(N4CCOCC4)c23)nc1C#N` [Example 220, 1-methyl-4-[4-(morpholin-4-yl)-7H-pyrrolo[2,3-d]pyrimidin-5-yl]-1H-imidazole-2-carbonitrile], in that order: 14.7 nM and 7.47 nM.
